What was measured:
rat TAAR1 = rat TAAR1 (Rattus norvegicus (Rat), UniProt Q923Y9); experiment: Radioligand binding assay on rat TAAR1; conditions: for Ki: rat TAAR1, membranes of stably transfected HEK-293 cells, second value of the pair, read-out: Ki (μM) mouse/rat: rat
Protocol: (§1) For the construction of expression plasmids the coding sequences of human, rat and mouse TAAR 1 were amplified from genomic DNA essentially as described by Lindemann et al.. The Expand High Fidelity PCR System (Roche Diagnostics) was used with 1.5 mM Mg^2+ and purified PCR products were cloned into pCR2.1-TOPO cloning vector (Invitrogen) following the instructions of the manufacturer. PCR products were subcloned into the pIRESneo2 vector (BD Clontech, Palo Alto, Calif.), and expression vectors were sequence verified before introduction in cell lines.
(§2) For the generation of stably transfected cell lines HEK293 cells were transfected with the pIRESneo2 expression plasmids containing the TAAR coding sequences (described above) with Lipofectamine 2000 (Invitrogen) according to the instructions of the manufacturer, and 24 hrs post transfection the culture medium was supplemented with 1 mg/ml G418 (Sigma, Buchs, Switzerland). After a culture period of about 10 d clones were isolated, expanded and tested for responsiveness to trace amines (all compounds purchased from Sigma) with the cAMP Biotrak Enzyme immunoassay (EIA) System (Amersham) following the non-acetylation EIA procedure provided by the manufacturer.
Radioligand Binding Assay on Rat TAAR1
(§3) Membrane Preparation and Radioligand Binding.
(§4) Cells were released from culture flasks using trypsin/EDTA, harvested, washed twice with ice-cold PBS (without Ca^2+ and Mg^2+), pelleted at 1′000 rpm for 5 min at 4° C., frozen and stored at −80° C. Frozen pellets were suspended in 20 ml HEPES-NaOH (20 mM, pH 7.4) containing 10 mM EDTA and homogenized with a Polytron (PT 6000, Kinematica) at 14′000 rpm for 20 s. The homogenate was centrifuged at 48′000×g for 30 min at 4° C. Subsequently, the supernatant was removed and discarded, and the pellet resuspended in 20 ml HEPES-NaOH (20 mM, pH 7.4) containing 0.1 mM EDTA using the Polytron (20 s at 14′000 rpm). This procedure was repeated and the final pellet resuspended in HEPES-NaOH containing 0.1 mM EDTA and homogenized using the Polytron. Typically, aliquots of 2 ml membrane portions were stored at −80° C. With each new membrane batch the dissociation constant (Kd) was determined via a saturation curve. […] Nonspecific binding was defined as the amount of ^3[H]—(S)-4-[(ethyl-phenyl-amino)-methyl]-4,5-dihydro-oxazol-2-ylamine bound in the presence of 10 μM unlabeled ligand. All compounds were tested at a broad range of concentrations (10 pM to 10 μM) in duplicates. […] The 96 deep well plates were incubated for 1 hr at 4° C. Incubations were terminated by rapid filtration through Unifilter-96 plates (Packard Instrument Company) and glass filters GF/C (Perkin Elmer) presoaked for 1 hr in polyethylenimine (0.3%) and washed 3 times with 1 ml of cold binding buffer. After addition of 45 μl of Microscint 40 (PerkinElmer) the Unifilter-96 plate was sealed and after 1 hr the radioactivity counted using a TopCount Microplate Scintillation Counter (Packard Instrument Company).

mouse TAAR1 = mouse TAAR1 (Mus musculus (Mouse), UniProt Q923Y8); experiment: Radioligand binding assay on mouse TAAR1; conditions: for Ki: mouse TAAR1, membranes of stably transfected HEK-293 cells, first value of the pair, read-out: Ki (μM) mouse/rat: mouse
mouse TAAR1, sequence (Q923Y8 whole entry): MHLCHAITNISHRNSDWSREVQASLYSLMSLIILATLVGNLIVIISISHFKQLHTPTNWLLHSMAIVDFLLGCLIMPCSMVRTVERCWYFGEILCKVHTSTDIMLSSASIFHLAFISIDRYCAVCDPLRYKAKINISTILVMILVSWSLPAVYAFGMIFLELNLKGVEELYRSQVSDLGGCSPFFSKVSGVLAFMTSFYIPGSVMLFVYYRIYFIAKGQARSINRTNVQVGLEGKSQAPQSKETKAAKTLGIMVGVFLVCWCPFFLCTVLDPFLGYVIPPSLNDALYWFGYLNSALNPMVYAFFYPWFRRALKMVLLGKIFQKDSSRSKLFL
Protocol: as §1, §2
Radioligand Binding Assay on Mouse TAAR1
as §3
as §4, with “1,000” for “1′000”, “48,000×g” for “48′000×g”

rat TAAR1, sequence (Q923Y9 whole entry): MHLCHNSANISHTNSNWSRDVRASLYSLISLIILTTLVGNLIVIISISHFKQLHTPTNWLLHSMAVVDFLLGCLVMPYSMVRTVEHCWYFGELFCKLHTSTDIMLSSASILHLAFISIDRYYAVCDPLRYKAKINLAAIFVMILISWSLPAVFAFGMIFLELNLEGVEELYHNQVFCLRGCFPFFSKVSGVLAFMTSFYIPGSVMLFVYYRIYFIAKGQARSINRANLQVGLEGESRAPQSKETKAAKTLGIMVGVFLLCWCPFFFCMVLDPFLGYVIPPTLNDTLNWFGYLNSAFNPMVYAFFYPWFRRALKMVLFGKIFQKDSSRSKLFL

Row | Ki (rat TAAR1) [µM] | Ki (mouse TAAR1) [µM] | Kd (rat TAAR1; rat TAAR1 membranes, saturation curve, usual value per membrane batch, read-out: dissociation constant (Kd) of the radioligand) [nM] | Kd (mouse TAAR1; mouse TAAR1 membranes, saturation curve, usual value per membrane batch, read-out: dissociation constant (Kd) of the radioligand) [nM] | Compound
1 | 0.0534 | 0.0113 | – | – | CCc1n[nH]c(C(=O)Nc2ccc([C@H]3CNCCO3)nc2)c1C [Example 66, (R)-3-Ethyl-4-methyl-N-(6-(morpholin-2-yl)pyridin-3-yl)-1H-pyrazole-5-carboxamide]
2 | 0.0613 | 0.0495 | – | – | O=C(Nc1ccc([C@H]2CNCCO2)nc1)c1[nH]nc(C(F)(F)F)c1Cl [Example 63, 4-Chloro-N-[6-[(2R)-morpholin-2-yl]-3-pyridyl]-3-(trifluoromethyl)-1H-pyrazole-5-carboxamide]
3 | 1.31 | 0.0557 | – | – | O=C(Nc1cnc(C2CNCCO2)c(F)c1)c1ccnc(C(F)(F)F)c1 (racemic) [Example 113, (RS)—N-(5-Fluoro-6-morpholin-2-yl-3-pyridyl)-2-(trifluoromethyl)pyridine-4-carboxamide]
4 | 0.0751 | 0.0019 | – | – | Clc1ccc(Nc2ccc([C@@H]3CNCCO3)nc2)nc1 [Example 20, N-(5-Chloro-2-pyridyl)-6-[(2S)-morpholin-2-yl]pyridin-3-amine]
5 | 0.102 | 0.003 | – | – | O=C(Nc1ccc([C@@H]2CNCCO2)nc1)c1ccc(Cl)cc1 [Example 31, 4-Chloro-N-[6-[(2S)-morpholin-2-yl]-3-pyridyl]benzamide]
6 | 0.011 | 0.0113 | – | – | CC(C)Cc1cc(C(=O)Nc2ccc([C@@H]3CNCCO3)nc2)[nH]n1 [Example 88, 3-Isobutyl-N-[6-[(2S)-morpholin-2-yl]-3-pyridyl]-1H-pyrazole-5-carboxamide]
7 | 0.0954 | 0.0239 | – | – | CC(C)c1n[nH]c(C(=O)Nc2ccc([C@@H]3CNCCO3)nc2)c1F [Example 121, 4-Fluoro-3-isopropyl-N-[6-[(2S)-morpholin-2-yl]-3-pyridyl]-1H-pyrazole-5-carboxamide]
8 | 0.466 | 0.0382 | – | – | FC(F)(F)c1nccc(Nc2ccc(C3CNCCO3)nc2)n1 (racemic) [Example 17, (RS)—N-(6-Morpholin-2-yl-3-pyridyl)-2-(trifluoromethyl)pyrimidin-4-amine]
9 | 0.424 | 0.0118 | – | – | Clc1ccc(Nc2ccc([C@H]3CNCCO3)nc2)nc1 [Example 26, N-(5-Chloro-2-pyridyl)-6-[(2R)-morpholin-2-yl]pyridin-3-amine]
10 | 0.0442 | 0.24 | – | – | CC(C)c1cc(C(=O)Nc2ccc([C@H]3CNCCO3)nc2)n(CC(F)(F)F)n1 [Example 98, 5-Isopropyl-N-[6-[(2R)-morpholin-2-yl]-3-pyridyl]-2-(2,2,2-trifluoroethyl)pyrazole-3-carboxamide]
11 | 0.0597 | 0.262 | – | – | CC(C)c1cc(C(=O)Nc2ccc([C@@H]3CNCCO3)nc2)n(CC(F)(F)F)n1 [Example 92, 5-Isopropyl-N-[6-[(2S)-morpholin-2-yl]-3-pyridyl]-2-(2,2,2-trifluoroethyl)pyrazole-3-carboxamide]
12 | 1.57 | 0.018 | – | – | Cc1n[nH]c(C(=O)Nc2ccc([C@H]3CNCCO3)nc2)c1Cl [Example 64, 4-Chloro-3-methyl-N-[6-[(2R)-morpholin-2-yl]-3-pyridyl]-1H-pyrazole-5-carboxamide]

Second part, the molecule before the results:

Row | Compound | Ki (rat TAAR1) [µM] | Ki (mouse TAAR1) [µM] | Kd (rat TAAR1; rat TAAR1 membranes, saturation curve, usual value per membrane batch, read-out: dissociation constant (Kd) of the radioligand) [nM] | Kd (mouse TAAR1; mouse TAAR1 membranes, saturation curve, usual value per membrane batch, read-out: dissociation constant (Kd) of the radioligand) [nM]
13 | Clc1ccc(Nc2cnc(C3CNCCO3)c(Cl)c2)nc1 (racemic) [Example 102, (RS)-5-Chloro-N-(5-chloro-2-pyridyl)-6-morpholin-2-yl-pyridin-3-amine] | 0.461 | 0.178 | – | –
14 | FC(F)(F)c1ccnc(Nc2ccc([C@@H]3CNCCO3)nc2)c1 [Example 23, 6-[(2S)-Morpholin-2-yl]-N-[4-(trifluoromethyl)-2-pyridyl]pyridin-3-amine] | 0.154 | 0.0124 | – | –
15 | Fc1cc(Nc2ccc(C(F)(F)F)cn2)cnc1C1CNCCO1 (racemic) [Example 111, (RS)-5-Fluoro-6-morpholin-2-yl-N-[5-(trifluoromethyl)-2-pyridyl]pyridin-3-amine] | 0.176 | 0.0128 | – | –
16 | CCCc1n[nH]c(C(=O)Nc2cnc(C3CNCCO3)c(F)c2)c1Cl (racemic) [Example 114, (RS)-4-Chloro-N-(5-fluoro-6-morpholin-2-yl-3-pyridyl)-3-propyl-1H-pyrazole-5-carboxamide] | 0.0221 | 0.0048 | – | –
17 | CCc1n[nH]c(C(=O)Nc2ccc([C@H]3CNCCO3)nc2)c1Cl [Example 82, 4-Chloro-3-ethyl-N-[6-[(2R)-morpholin-2-yl]-3-pyridyl]-1H-pyrazole-5-carboxamide] | 0.0925 | 0.0039 | – | –
18 | CCc1n[nH]c(C(=O)Nc2ccc([C@@H]3CNCCO3)nc2)c1Cl [Example 76, 4-Chloro-3-ethyl-N-[6-[(2S)-morpholin-2-yl]-3-pyridyl]-1H-pyrazole-5-carboxamide] | 0.0384 | 0.0063 | – | –
19 | Cc1cc(NC(=O)Nc2cccc(Cl)c2)cnc1C1CNCCO1 (racemic) [Example 119, (RS)-1-(3-Chlorophenyl)-3-(5-methyl-6-morpholin-2-yl-3-pyridyl)urea] | 0.243 | 0.0533 | – | –
20 | CCN(C[C@H]1COC(N)=N1)c1ccccc1 [^3[H]—(S)-4-[(ethyl-phenyl-amino)-methyl]-4,5-dihydro-oxazol-2-ylamine, reference compound] | – | – | ~2.3 | ~0.7
21 | O=C(Nc1cnc(C2CNCCO2)nc1)c1ccc(Cl)cc1 (racemic) [Example 72, (RS)-4-Chloro-N-(2-morpholin-2-ylpyrimidin-5-yl)benzamide] | 4.93 | 0.0058 | – | –
22 | CCc1n[nH]c(C(=O)Nc2ccc([C@@H]3CNCCO3)nc2)c1Br [Example 78, 4-Bromo-3-ethyl-N-[6-[(2S)-morpholin-2-yl]-3-pyridyl]-1H-pyrazole-5-carboxamide] | 0.041 | 0.0056 | – | –
23 | FC(F)(F)c1ccnc(Nc2ccc([C@H]3CNCCO3)nc2)c1 [Example 28, 6-[(2R)-Morpholin-2-yl]-N-[4-(trifluoromethyl)-2-pyridyl]pyridin-3-amine] | 0.606 | 0.11 | – | –
24 | CCOc1ccc(Nc2ccc(C3CNCCO3)nc2)cc1 (racemic) [Example 3, (RS)—N-(4-Ethoxyphenyl)-6-morpholin-2-yl-pyridin-3-amine] | 0.374 | 0.0048 | – | –
25 | CCc1n[nH]c(C(=O)Nc2ccc([C@H]3CNCCO3)nc2)c1Br [Example 84, 4-Bromo-3-ethyl-N-[6-[(2R)-morpholin-2-yl]-3-pyridyl]-1H-pyrazole-5-carboxamide] | 0.0685 | 0.0063 | – | –
26 | FC(F)(F)c1ccc(Nc2ccc([C@H]3CNCCO3)nc2)cn1 [Example 27, 6-[(2R)-Morpholin-2-yl]-N-[6-(trifluoromethyl)-3-pyridyl]pyridin-3-amine] | 1.1 | 0.074 | – | –
